# Reference: PMC9966578, “Barbamide Displays Affinity for Membrane-Bound Receptors and Impacts Store-Operated Calcium Entry in Mouse Sensory Neurons” (Marine Drugs, 2023)
# Assays:
# Test in all cases: radioligand binding assay (NIMH PDSP), secondary screen
# [1] = biological target: T1, dopamine D3 receptor (D3R) (Homo sapiens, UniProt P35462)
# T1 construct: gene DRD3
# [2] = biological target: T2, dopamine transporter (DAT) (Homo sapiens, UniProt Q01959)
# T2 construct: gene SLC6A3
# [3] = biological target: T3, kappa opioid receptor (KOR) (Homo sapiens, UniProt P41145)
# T3 construct: gene OPRK1
# T3 sequence (P41145 whole entry): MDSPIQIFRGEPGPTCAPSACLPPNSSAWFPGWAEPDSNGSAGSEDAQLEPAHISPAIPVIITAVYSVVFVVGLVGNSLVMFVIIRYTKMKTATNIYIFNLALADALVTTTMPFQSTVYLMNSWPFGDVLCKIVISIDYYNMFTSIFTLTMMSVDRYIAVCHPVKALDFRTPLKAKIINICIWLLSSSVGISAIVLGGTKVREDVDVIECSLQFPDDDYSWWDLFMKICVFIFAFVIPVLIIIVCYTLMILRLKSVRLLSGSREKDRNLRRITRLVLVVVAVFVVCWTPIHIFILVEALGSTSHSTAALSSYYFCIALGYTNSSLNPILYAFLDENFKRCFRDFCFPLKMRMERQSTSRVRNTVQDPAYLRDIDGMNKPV
# T1 sequence (P35462 whole entry): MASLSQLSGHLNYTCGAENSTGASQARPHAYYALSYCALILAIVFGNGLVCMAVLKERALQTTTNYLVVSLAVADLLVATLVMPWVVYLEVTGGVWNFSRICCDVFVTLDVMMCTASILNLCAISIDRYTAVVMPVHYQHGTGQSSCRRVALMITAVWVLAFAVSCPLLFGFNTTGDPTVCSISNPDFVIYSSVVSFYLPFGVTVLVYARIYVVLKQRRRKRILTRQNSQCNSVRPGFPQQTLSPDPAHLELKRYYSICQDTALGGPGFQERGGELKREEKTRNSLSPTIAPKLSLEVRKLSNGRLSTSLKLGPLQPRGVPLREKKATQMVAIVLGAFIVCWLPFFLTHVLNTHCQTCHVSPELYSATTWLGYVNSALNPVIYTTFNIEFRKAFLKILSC
# T2 sequence (Q01959 whole entry): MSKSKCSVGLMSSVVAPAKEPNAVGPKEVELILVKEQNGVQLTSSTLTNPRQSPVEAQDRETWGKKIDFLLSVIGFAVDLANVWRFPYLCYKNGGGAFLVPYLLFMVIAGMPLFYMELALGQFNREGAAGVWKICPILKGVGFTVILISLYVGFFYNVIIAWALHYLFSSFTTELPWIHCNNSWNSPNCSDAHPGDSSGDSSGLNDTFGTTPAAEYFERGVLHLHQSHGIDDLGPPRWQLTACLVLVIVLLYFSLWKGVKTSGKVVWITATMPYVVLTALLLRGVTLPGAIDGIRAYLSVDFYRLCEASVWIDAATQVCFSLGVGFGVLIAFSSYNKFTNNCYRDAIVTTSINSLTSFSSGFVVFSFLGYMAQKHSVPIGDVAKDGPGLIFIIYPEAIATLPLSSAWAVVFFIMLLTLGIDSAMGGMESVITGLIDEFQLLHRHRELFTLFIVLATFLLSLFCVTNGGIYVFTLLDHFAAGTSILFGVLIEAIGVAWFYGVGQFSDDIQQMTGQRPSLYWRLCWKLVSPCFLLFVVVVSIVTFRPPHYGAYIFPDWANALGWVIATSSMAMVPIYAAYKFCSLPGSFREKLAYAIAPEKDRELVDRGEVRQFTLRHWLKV
structure (smiles),measurement,setting,value
"CO/C(=C/C(=O)N(C)C(Cc1ccccc1)c1nccs1)CC(C)C(Cl)(Cl)Cl (stereo not drawn) [compound 1, barbamide]",Ki,[1],0.446 µM
same,Ki,[2],3.1 µM
same,Ki,[3],0.0791 µM
